Series [1] can be described thus: Inhibition of IL-8 release in non-glycosylated IL-17A/TNFalpha-stimulated human HEKa incubated for 72 hrs under serum free medium by AlphaLISA. It counts as functional, cell-based. Background: Bead proximity is the source of the signal in Alpha formats.
Series [2] can be described thus: Inhibition of IL-8 release in glycosylated IL-17A/TNFalpha-stimulated human HEKa incubated for 72 hrs under serum free medium by AlphaLISA. It counts as functional, cell-based.
Series [3] can be described thus: Metabolic stability in human liver microsomes assessed as apparent clearance at 0.5 uM measured upto 40 mins in presence of NADPH by LCMS/MS analysis. It counts as ADME, Microsome. To be noted: read-out: CLH. In general terms: Liver microsomes are vesicles of endoplasmic reticulum, rich in cytochrome P450 enzymes.
Series [4] is described as follows: Solubility in phosphate buffer at pH 7.4 measured after 24 hrs by HPLC-UV analysis. It counts as physicochemical.
Series [5] is described as follows: Solubility in phosphate buffer at pH 6.5 measured after 24 hrs by HPLC-UV analysis. It counts as physicochemical.
Series [6] is described as follows: Solubility in phosphate buffer at pH 2 measured after 24 hrs by HPLC-UV analysis. It counts as physicochemical.
Series [7] can be described thus: Protein binding in human plasma assessed as unbound fraction at 1 uM by LCMS/MS analysis. It counts as ADME, cell-free.
A short description of series [8]: Apparent permeability of compound in human Caco2 cells from apical to basal. It counts as ADME, cell-based. To be noted: Caco-2.
Series [9] is described as follows: Apparent permeability of compound in human Caco2 cells from basal to apical. It counts as ADME, cell-based. The conditions noted are these: Caco-2. In general terms: Passage across Caco-2 layers is used to estimate intestinal permeability.
Series [10] can be described thus: Clearance in Sprague-Dawley rat at 0.1 mg/kg, iv measured upto 24 hrs by LCMS/MS analysis. It counts as ADME, organism-based. The conditions noted are these: in vivo.
A short description of series [11]: Half life in Sprague-Dawley rat at 0.1 mg/kg, iv measured upto 24 hrs by LCMS/MS analysis. To be noted: in vivo. It counts as ADME, organism-based.
Series [12] is described as follows: Volume of distribution at steady state in Sprague-Dawley rat at 0.1 mg/kg, iv measured upto 24 hrs by LCMS/MS analysis. It counts as ADME, organism-based. To be noted: in vivo, read-out: Vdss.
Series [13] can be described thus: Oral bioavailability in Sprague-Dawley rat at 2.6 mg/kg measured upto 24 hrs by LCMS/MS analysis. It counts as ADME, organism-based. To be noted: in vivo.
The nature of series [14]: Inhibition of IL-8 release in non-glycosylated IL-17A/TNFalpha-stimulated human HEKa cells at 0.6 uM incubated for 72 hrs under serum free medium by AlphaLISA. It counts as functional.
Series [15] deals with Voltage-gated inwardly rectifying potassium channel KCNH2 (Homo sapiens, UniProt Q12809). The series is described as follows: Inhibition of human ERG. It counts as toxicity.
The target of a further series is T1, Interleukin-17A (Homo sapiens, UniProt Q16552).
T1 sequence (Q16552 whole entry): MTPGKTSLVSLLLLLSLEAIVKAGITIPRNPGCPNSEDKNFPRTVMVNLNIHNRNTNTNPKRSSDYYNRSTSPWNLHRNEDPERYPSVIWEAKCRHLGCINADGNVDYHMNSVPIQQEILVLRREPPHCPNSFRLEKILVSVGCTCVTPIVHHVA
The series is described as follows: Binding affinity to human IL-17A assessed as thermal stability by measuring increase in unfolding temperature by differential scanning fluorimetry.

Series [16] can be described thus: Inhibition of IL-8 release in non-glycosylated IL-17A/TNFalpha-stimulated human HEKa cells at 6 uM incubated for 72 hrs under serum free medium by AlphaLISA. It counts as functional.
The nature of series [17]: Inhibition of IL-8 release in glycosylated IL-17A/TNFalpha-stimulated human HEKa cells at 10 uM incubated for 72 hrs under serum free medium by AlphaLISA. It counts as functional.

pEC50, pIC50, pKd: −log10 of the molar value. ≈ marks a conversion by molar mass, not a printed value.

Voltage-gated inwardly rectifying potassium channel KCNH2, sequence (Q12809 whole entry): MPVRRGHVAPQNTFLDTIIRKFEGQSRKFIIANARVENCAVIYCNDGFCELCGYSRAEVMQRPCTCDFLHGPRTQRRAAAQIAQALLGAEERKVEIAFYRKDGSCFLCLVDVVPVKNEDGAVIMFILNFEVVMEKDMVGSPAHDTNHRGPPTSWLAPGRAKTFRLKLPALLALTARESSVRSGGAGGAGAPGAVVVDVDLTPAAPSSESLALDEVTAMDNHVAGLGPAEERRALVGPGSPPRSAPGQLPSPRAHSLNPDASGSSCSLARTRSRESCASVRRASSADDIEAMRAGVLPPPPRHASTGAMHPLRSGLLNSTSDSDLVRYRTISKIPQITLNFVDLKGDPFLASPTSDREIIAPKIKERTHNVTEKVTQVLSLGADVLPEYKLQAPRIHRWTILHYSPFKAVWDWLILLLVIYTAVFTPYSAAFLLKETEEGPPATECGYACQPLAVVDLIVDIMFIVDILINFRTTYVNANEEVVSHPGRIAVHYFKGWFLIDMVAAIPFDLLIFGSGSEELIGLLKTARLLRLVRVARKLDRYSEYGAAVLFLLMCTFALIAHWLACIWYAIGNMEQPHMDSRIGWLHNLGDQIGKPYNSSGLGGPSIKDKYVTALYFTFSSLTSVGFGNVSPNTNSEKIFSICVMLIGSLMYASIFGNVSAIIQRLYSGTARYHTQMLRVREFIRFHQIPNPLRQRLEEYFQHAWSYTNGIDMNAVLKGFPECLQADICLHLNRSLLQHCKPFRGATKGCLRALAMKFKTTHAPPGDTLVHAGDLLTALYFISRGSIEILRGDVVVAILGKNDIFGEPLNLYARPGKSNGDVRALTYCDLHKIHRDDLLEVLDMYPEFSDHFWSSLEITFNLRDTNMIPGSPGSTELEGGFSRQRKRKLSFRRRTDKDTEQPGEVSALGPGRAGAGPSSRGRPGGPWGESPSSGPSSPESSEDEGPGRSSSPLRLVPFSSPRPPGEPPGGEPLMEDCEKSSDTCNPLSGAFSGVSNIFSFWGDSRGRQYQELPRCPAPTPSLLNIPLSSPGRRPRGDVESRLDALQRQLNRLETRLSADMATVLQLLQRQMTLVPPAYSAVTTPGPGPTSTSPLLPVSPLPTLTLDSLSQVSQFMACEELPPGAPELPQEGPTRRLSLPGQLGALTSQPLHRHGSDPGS

On to `O=C1CNC(=O)[C@@H](Cc2ccc(NC(=O)[C@H](Cc3ccccc3Cl)NC(=O)Cc3ccccc3)cc2)NC(=O)CC2(CCCC2)CC(=O)NCCCCCN1`, for which the pEC50 – broadly, −log10 of the EC50, conventionally taken in molar units – in series [1] was 6.82; in series [2], 5.72. Also, in [3], the CLint scaled at 0.5 µM is over 12 L/h/kg.

`Cn1cncc1-c1ccc(NC(=O)[C@@H](NC(=O)c2ccnn2C)C(c2ccccc2)c2ccccc2)cc1` showed a negative logarithm of the EC50 (pEC50) in series [2] of 6.02. Further, the CLint scaled at 0.5 µM in series [3] stood at 1.26 L/h/kg.

`Cc1n[nH]c(C)c1-c1ccc(NC(=O)[C@H](CC2CCCCC2)NC(=O)c2ccnn2C)cc1` showed a pEC50 in [1] of 6.03. Moreover, the CLint scaled at 0.5 µM in [3] worked out at 3.42 L/h/kg.

As to `Cc1n[nH]c(C)c1-c1ccc(NC(=O)[C@@H](NC(=O)c2ccnn2C)C(C2CC2)C2CC2)cc1`, in series [1], the negative-log EC50 (pEC50) is 7.28. In series [3], the CLint scaled at 0.5 µM was under 0.48 L/h/kg.

Compound `Cc1n[nH]c(C)c1-c1ccc(NC(=O)[C@H](Cc2ccccc2Cl)NC(=O)c2ccnn2C)cc1` gave a negative logarithm of the EC50 (pEC50) in [1] of 5.96. Also, the CLint scaled at 0.5 µM in series [3] turned out to be 1.44 L/h/kg.

The compound `Cc1n[nH]c(C)c1-c1ccc(NC(=O)[C@@H](NC(=O)c2ccnn2C)[C@H]2CC[C@H](C)CC2)cc1` showed a negative-log EC50 (pEC50) in series [1] of 7.30. Further, the CLint scaled at 0.5 µM in [3] was under 0.48 L/h/kg.

For `Cc1n[nH]c(C)c1-c1ccc(NC(=O)[C@@H](NC(=O)c2ccnn2C)C(c2ccccc2)c2ccccc2)cc1`, the solubility (commonly how much of the substance goes into solution per volume) at 24 h in series [4] is under 0.001 mg/mL; in series [5], under 0.001 mg/mL; in series [6], 0.025 mg/mL (≈ 48.2 µM). The compound also had a negative-log EC50 (pEC50) in series [2] of 6.93. For the same compound, the CLint scaled at 0.5 µM in series [3] is under 0.48 L/h/kg. For the same compound, the fraction unbound – broadly, the share of the substance not bound to proteins or other matrix – at 1 µM in series [7] amounted to 0.0011. Also, the Papp A→B – broadly, the apparent permeability from the apical to the basolateral side of a cell layer – in [8] came out at 160 nm/s. Further, the Papp B→A (as a rule, the apparent permeability from the basolateral to the apical side of a cell layer) in series [9] is 210 nm/s. Also, the clearance (usually the rate of elimination divided by the concentration) in series [10] amounted to 0.42 L/h/kg. For the same compound, the half-life (in general, how long it takes for the measured level to halve) in series [11] was 3.2 h. Further, the Vd in series [12] was 2 L/kg. In addition, the bioavailability – broadly, dose-corrected exposure relative to a reference, in per cent – in series [13] was 26%.

With `Cc1n[nH]c(C)c1-c1ccc(NC(=O)[C@@H](NC(=O)c2ccnn2C)c2ccccc2)cc1`, in [3], the CLint scaled at 0.5 µM was under 0.48 L/h/kg. Besides, the inhibition (as a rule, the relative decrease from the control value, in per cent) at 0.6 µM in series [14] turned out to be 28%.

Compound `CCn1nccc1C(=O)N[C@H](C(=O)Nc1ccc(-c2c(C)n[nH]c2C)cc1)C(C1CCC1)C1CCC1` had a pEC50 in series [1] of 8.26. The CLint scaled at 0.5 µM in [3] stood at 2.64 L/h/kg.

Turning to `Cc1n[nH]c(C)c1-c1ccc(NC(=O)[C@@H](NC(=O)c2ccnn2C)C2CCCCC2)cc1`, the pEC50 in series [1] was 6.68. Moreover, the CLint scaled at 0.5 µM in [3] was under 0.48 L/h/kg.

Consider `CC(C)[C@H](NC(=O)COCCNC(=O)OC(C)(C)C)C(=O)N[C@@H](CC(=O)O)Cc1ccc(NC(=O)[C@H](Cc2ccccc2Cl)NC(=O)C(F)(F)c2ccccc2)cc1`, for which the negative logarithm of the EC50 (pEC50) in [1] was 6.24. Also, the CLint scaled at 0.5 µM in [3] worked out at 1.98 L/h/kg.

`Cc1[nH]ncc1-c1ccc(NC(=O)[C@@H](NC(=O)c2ccnn2C)C(c2ccccc2)c2ccccc2)cc1` gave a pEC50 in series [2] of 6.41. In addition, the CLint scaled at 0.5 µM in series [3] was under 0.48 L/h/kg.

The compound `CCn1nccc1C(=O)N[C@H](C(=O)Nc1ccc(-c2c(C)n[nH]c2C)cc1)C(C1CC1)C1CC1` showed a pEC50 in series [1] of 7.59. Moreover, the CLint scaled at 0.5 µM in series [3] is under 0.48 L/h/kg.

As for `Cn1nccc1C(=O)N[C@H](C(=O)Nc1ccc(-c2cn[nH]c2)cc1)C(c1ccccc1)c1ccccc1`, the pEC50 in series [2] is 5.47. For the same compound, the CLint scaled at 0.5 µM in series [3] is under 0.48 L/h/kg.

Take `Cc1n[nH]c(C)c1-c1ccc(NC(=O)[C@@H](NC(=O)c2ccnn2C(C)C)C(C2CC2)C2CC2)cc1`: the figures for the solubility at 24 h in [4], in series [5] and in [6] were under 0.001 mg/mL, under 0.001 mg/mL and 0.04 mg/mL (≈ 84.3 µM), respectively. The compound further had a negative-log EC50 (pEC50) in series [1] of 7.82. Further, the CLint scaled at 0.5 µM in series [3] is under 0.48 L/h/kg. Further, the fraction unbound at 1 µM in [7] worked out at 0.017. Moreover, the Papp A→B in [8] was 380 nm/s. In series [9], the apparent permeability from basolateral to apical (Papp B→A) came out at 260 nm/s. The compound further yielded a clearance in series [10] of 0.444 L/h/kg. For the same compound, the half-life in [11] is 3.7 h. Moreover, the Vd in series [12] turned out to be 2.6 L/kg. The bioavailability in series [13] is 100%. Further, in [15], the negative logarithm of the IC50 (pIC50) – broadly, −log10 of the IC50, conventionally taken in molar units – is under 4.52. At Interleukin-17A, the pKd (usually the negative decadic logarithm of the Kd, by convention in mol/L) was 7.49.

As to `Cc1n[nH]c(C)c1-c1ccc(NC(=O)[C@H](Cc2ccccc2)NC(=O)c2ccnn2C)cc1`, the CLint scaled at 0.5 µM in series [3] was 0.72 L/h/kg. This compound also registered an inhibition at 6 µM in [16] of 37%.

For `Cn1cnnc1-c1ccc(NC(=O)[C@@H](NC(=O)c2ccnn2C)C(c2ccccc2)c2ccccc2)cc1`, in [3], the CLint scaled at 0.5 µM is under 0.48 L/h/kg. In addition, in series [17], 10 µM produced 47% inhibition.

In series [1], `Cc1n[nH]c(C)c1-c1ccc(NC(=O)[C@@H](NC(=O)c2ccnn2C)C(C2CCC2)C2CCC2)cc1` showed a negative logarithm of the EC50 (pEC50) of 8.00. Besides, the CLint scaled at 0.5 µM in series [3] was determined as 0.54 L/h/kg.

In series [1], `Cc1n[nH]c(C)c1-c1ccc(NC(=O)[C@@H](NC(=O)c2ccnn2C)C2CCCCCC2)cc1` gave a pEC50 of 7.44. The CLint scaled at 0.5 µM in series [3] is 6.3 L/h/kg.

As to `CN(C)C(=O)c1ccc(NC(=O)[C@@H](NC(=O)c2ccnn2C)C(c2ccccc2)c2ccccc2)cc1`, the negative-log EC50 (pEC50) in [1] was 5.25. In series [3], the CLint scaled at 0.5 µM is under 0.48 L/h/kg. The inhibition at 10 µM in series [17] was 52%.

For the compound `Cc1n[nH]c(C)c1-c1ccc(NC(=O)C(NC(=O)c2ccnn2C)C2CCC3(CC2)CC3)cc1` (stereo not given), in series [1], the negative-log EC50 (pEC50) is 6.53. In addition, the CLint scaled at 0.5 µM in series [3] is under 0.48 L/h/kg.

With `Cc1n[nH]c(C)c1-c1ccc(NC(=O)[C@@H](NC(=O)c2ccnn2C(C)C)C(C2CCC2)C2CCC2)cc1`, the pEC50 in [1] was 8.35. The CLint scaled at 0.5 µM in series [3] is 3.12 L/h/kg.

`Cc1ncn(C)c1-c1ccc(NC(=O)[C@@H](NC(=O)c2ccnn2C)C(c2ccccc2)c2ccccc2)cc1`: the pEC50 in [2] is 6.52. For the same compound, the CLint scaled at 0.5 µM in series [3] stood at 5.64 L/h/kg.

For the origin of these results see ChEMBL document CHEMBL5131568, “Discovery of an Oral, Rule of 5 Compliant, Interleukin 17A Protein-Protein Interaction Modulator for the Potential Treatment of Psoriasis and Other Inflammatory Diseases” (J Med Chem, 2022).
